Data published in the supplement of paper PMC10307832.

Tests used:
Test in all cases: relative viability (nuclei count vs DMSO), 5 days (fraction); higher = more cells survive
Tozasertib + Palbociclib = compound: Cc1cc(Nc2cc(N3CCN(C)CC3)nc(Sc3ccc(NC(=O)C4CC4)cc3)n2)n[nH]1 [Tozasertib] + CC(=O)c1c(C)c2cnc(Nc3ccc(N4CCNCC4)cn3)nc2n(C2CCCC2)c1=O [Palbociclib] (partner 0.5 µM)
Summary of the method: (§1)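 Cells from lung cancer lines were seeded into 1536-well plates and, one day later, dosed by pin tool. Treatments were either a single drug or a fixed dose of an anchor drug with five library-drug doses (not always all listed) in √10 steps. After 5 days, nuclei were stained in a one-step fixation (final 0.05% Triton X-100, 1% formaldehyde, 1 ug/ml Hoechst) and counted on 4× images, and relative viability is the treated-to-vehicle nuclei ratio, as the median of duplicate plates.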

Tozasertib + Trametinib = compound: Cc1cc(Nc2cc(N3CCN(C)CC3)nc(Sc3ccc(NC(=O)C4CC4)cc3)n2)n[nH]1 [Tozasertib] + CC(=O)Nc1cccc(-n2c(=O)n(C3CC3)c(=O)c3c(Nc4ccc(I)cc4F)n(C)c(=O)c(C)c32)c1 [Trametinib] (partner 0.02 µM)
Summary of the method: as §1

Tozasertib + Decitabine = compound: Cc1cc(Nc2cc(N3CCN(C)CC3)nc(Sc3ccc(NC(=O)C4CC4)cc3)n2)n[nH]1 [Tozasertib] + Nc1ncn([C@H]2C[C@H](O)[C@@H](CO)O2)c(=O)n1 [Decitabine] (partner 2 µM)
Summary of the method: as §1

Tozasertib + Crizotinib = compound: Cc1cc(Nc2cc(N3CCN(C)CC3)nc(Sc3ccc(NC(=O)C4CC4)cc3)n2)n[nH]1 [Tozasertib] + C[C@@H](Oc1cc(-c2cnn(C3CCNCC3)c2)cnc1N)c1c(Cl)ccc(F)c1Cl [Crizotinib] (partner 1 µM)
Summary of the method: as §1

Tozasertib + Vorinostat = compound: Cc1cc(Nc2cc(N3CCN(C)CC3)nc(Sc3ccc(NC(=O)C4CC4)cc3)n2)n[nH]1 [Tozasertib] + O=C(CCCCCCC(=O)Nc1ccccc1)NO [Vorinostat] (partner 1 µM)
Summary of the method: as §1

Row | Cell Line | relative viability (Tozasertib + Palbociclib; first compound 0.004 µM) | relative viability (Tozasertib + Palbociclib; first compound 0.01265 µM) | relative viability (Tozasertib + Palbociclib; first compound 0.04 µM) | relative viability (Tozasertib + Palbociclib; first compound 0.1265 µM) | relative viability (Tozasertib + Trametinib; first compound 0.01265 µM) | relative viability (Tozasertib + Trametinib; first compound 0.04 µM) | relative viability (Tozasertib + Trametinib; first compound 0.1265 µM) | relative viability (Tozasertib + Decitabine; first compound 0.004 µM) | relative viability (Tozasertib + Decitabine; first compound 0.01265 µM) | relative viability (Tozasertib + Decitabine; first compound 0.04 µM) | relative viability (Tozasertib + Decitabine; first compound 0.1265 µM) | relative viability (Tozasertib + Crizotinib; first compound 0.004 µM) | relative viability (Tozasertib + Crizotinib; first compound 0.04 µM) | relative viability (Tozasertib + Crizotinib; first compound 0.1265 µM) | relative viability (Tozasertib + Vorinostat; first compound 0.004 µM) | relative viability (Tozasertib + Vorinostat; first compound 0.01265 µM) | relative viability (Tozasertib + Vorinostat; first compound 0.04 µM) | relative viability (Tozasertib + Vorinostat; first compound 0.1265 µM) | relative viability (Tozasertib + Trametinib; first compound 0.004 µM) | relative viability (Tozasertib + Crizotinib; first compound 0.01265 µM)
1 | NCI-H1734 | 0.361 | 0.308 | 0.364 | 0.306 | 0.793 | 0.678 | 0.403 | 0.501 | 0.51 | 0.561 | 0.401 | 0.703 | 0.67 | 0.258 | 0.711 | 0.741 | 0.649 | 0.245 | – | –
2 | NCI-H1755 | 0.456 | 0.461 | 0.442 | 0.442 | 0.696 | 0.849 | 0.742 | 0.744 | – | 0.62 | 0.644 | 0.803 | 0.852 | 0.634 | 0.749 | 0.782 | 0.744 | 0.675 | 0.733 | 0.89
3 | NCI-H1915 | 0.515 | 0.498 | 0.535 | 0.465 | 0.298 | 0.336 | 0.264 | 0.268 | 0.263 | 0.236 | 0.261 | 0.98 | 0.873 | 0.721 | 0.505 | 0.564 | 0.512 | 0.439 | 0.261 | 0.889
4 | NCI-H1944 | 0.311 | 0.308 | 0.332 | 0.273 | 0.392 | 0.446 | 0.306 | 0.404 | 0.396 | 0.403 | 0.349 | 0.943 | 1.04 | 0.616 | 0.557 | 0.519 | 0.427 | 0.204 | 0.396 | 0.962
5 | NCI-H1975 | 0.59 | 0.598 | 0.623 | 0.622 | 0.321 | 0.826 | 0.322 | 0.371 | 0.462 | 0.382 | 0.36 | 1.05 | 0.853 | 0.604 | 0.706 | 0.706 | 0.72 | 0.583 | 0.385 | 1.03
6 | NCI-H1993 | 0.622 | 0.63 | 0.681 | 0.743 | 0.396 | 0.5 | 0.54 | 0.549 | 0.542 | – | 0.574 | 0.931 | 0.845 | 0.581 | 0.754 | 0.824 | 1.11 | 0.408 | 0.444 | 0.776
7 | NCI-H2009 | 0.254 | 0.201 | 0.247 | 0.164 | 0.288 | 0.341 | 0.216 | 0.401 | 0.352 | 0.416 | 0.359 | 1.06 | 0.988 | 0.847 | 0.772 | 0.696 | 0.735 | 0.578 | 0.288 | 1.06
8 | NCI-H2023 | 0.409 | 0.384 | 0.417 | 0.243 | 0.455 | 0.535 | 0.425 | 0.223 | 0.237 | 0.217 | 0.169 | 0.717 | 0.611 | 0.403 | 0.547 | 0.674 | 0.518 | 0.16 | 0.557 | 0.704
9 | NCI-H2085 | 0.462 | 0.455 | 0.464 | 0.475 | 0.6 | 0.504 | 0.476 | 0.578 | 0.508 | 0.538 | 0.485 | 0.953 | 0.667 | 0.597 | 0.797 | 0.714 | – | 0.603 | 0.681 | 0.959
10 | NCI-H2087 | 0.248 | 0.204 | 0.231 | 0.128 | 0.187 | 0.218 | 0.126 | 0.244 | 0.257 | 0.306 | 0.143 | 0.837 | 0.804 | 0.658 | 0.477 | 0.537 | 0.544 | 0.382 | 0.185 | 0.865
11 | NCI-H2126 | 0.354 | 0.405 | 0.372 | 0.339 | 0.535 | 0.632 | 0.552 | 0.551 | 0.58 | 0.612 | 0.606 | 1.17 | 1.09 | 0.996 | 0.797 | 0.808 | 0.915 | 0.781 | 0.562 | 1.03
12 | NCI-H2170 | 0.402 | 0.382 | 0.391 | 0.337 | 0.904 | 0.94 | 0.818 | 0.487 | 0.446 | 0.474 | 0.425 | 1.15 | 1.02 | 0.736 | 0.764 | 0.887 | 0.69 | 0.427 | 0.896 | 1.19
13 | NCI-H2347 | 0.384 | 0.457 | 0.472 | 0.413 | 0.299 | 0.317 | 0.256 | 0.567 | 0.365 | 0.627 | 0.74 | 0.722 | – | 0.723 | 0.586 | 0.643 | 0.57 | 0.664 | 0.279 | 0.71
14 | NCI-H2405 | 0.558 | 0.538 | 0.498 | 0.527 | 0.658 | 0.652 | 0.611 | 0.721 | 0.699 | 0.715 | 0.683 | 0.844 | 0.857 | 0.67 | 1.16 | 0.809 | 1.02 | 0.594 | 0.649 | 0.83
15 | NCI-H3122 | 0.157 | 0.159 | 0.211 | 0.201 | 0.244 | 0.239 | 0.23 | 0.444 | 0.356 | 0.48 | 0.494 | 0.26 | 0.289 | 0.277 | 0.852 | 1.07 | 0.869 | 0.485 | 0.198 | 0.287
16 | PC-3 [JPC-3] | 0.526 | 0.535 | 0.511 | 0.545 | 0.72 | 0.762 | 0.715 | 0.808 | 0.889 | 0.828 | 0.793 | 0.884 | 0.94 | 0.945 | 0.616 | 0.51 | 0.71 | 0.566 | 0.502 | 0.973
